Legend:
[1] = target: T1, Arginase-2, mitochondrial (Homo sapiens, UniProt P78540); experiment: Inhibition of human recombinant ARG2 extracted from Escherichia coli
T1 sequence (P78540 whole entry): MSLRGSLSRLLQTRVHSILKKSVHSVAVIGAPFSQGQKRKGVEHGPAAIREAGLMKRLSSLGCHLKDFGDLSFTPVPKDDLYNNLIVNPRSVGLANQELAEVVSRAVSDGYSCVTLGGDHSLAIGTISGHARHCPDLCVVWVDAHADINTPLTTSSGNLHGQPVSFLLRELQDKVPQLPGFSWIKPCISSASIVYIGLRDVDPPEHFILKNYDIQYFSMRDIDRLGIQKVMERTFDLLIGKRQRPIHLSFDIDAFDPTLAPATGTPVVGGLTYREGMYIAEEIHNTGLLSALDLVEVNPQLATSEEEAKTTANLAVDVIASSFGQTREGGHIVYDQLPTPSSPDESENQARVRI

Arginase-1 [2] = target: T2, Arginase-1 (Homo sapiens, UniProt P05089); experiment: Inhibition of ARG1 (unknown origin)
T2 sequence (P05089 whole entry): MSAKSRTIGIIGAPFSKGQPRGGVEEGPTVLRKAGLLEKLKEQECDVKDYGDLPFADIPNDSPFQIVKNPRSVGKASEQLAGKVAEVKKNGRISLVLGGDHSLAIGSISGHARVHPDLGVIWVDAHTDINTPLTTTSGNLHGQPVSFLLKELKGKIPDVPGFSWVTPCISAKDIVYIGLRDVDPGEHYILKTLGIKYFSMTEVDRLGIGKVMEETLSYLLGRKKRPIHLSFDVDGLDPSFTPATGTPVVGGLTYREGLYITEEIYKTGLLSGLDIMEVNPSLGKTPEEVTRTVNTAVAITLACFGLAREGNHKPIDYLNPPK

[3] = target: T1, Arginase-2, mitochondrial; experiment: Inhibition of ARG2 (unknown origin)
Arginase-1 [4] = target: T2, Arginase-1; experiment: Binding affinity to human recombinant ARG1 assessed as inhibition constant
Arginase-1 [5] = target: T2, Arginase-1; experiment: Inhibition of N-terminal hexa-histidine full-length human ARG1 extracted from Escherichia coli BL21 (DE3) Rosetta competent cells
[6] = target: T1, Arginase-2, mitochondrial; experiment: Inhibition of human recombinant ARG2

An IC50 [1] of 39 nM was found for CN(C)C[C@@H]1CC[C@@H](CCB(O)O)C[C@]1(N)C(=O)O in this work.

An IC50 (Arginase-1 [2]) of 14.7 nM and an IC50 [3] of 23 nM were found for O=C(O)[C@@]1(CCCCB(O)O)CCCN1 in this work.

An IC50 (Arginase-1 [2]) of 6.9 nM was found for CN[C@@H]1C[C@@H]2C[C@@](N)(C(=O)O)[C@@H](CCCB(O)O)[C@@H]2[C@H]1F in this work.

A Ki (Arginase-1 [4]) of 60000 nM was found for N[C@@H](CCCCC=O)C(=O)O in this work.

An IC50 [3] of 26 nM was found for N[C@@](CCCCB(O)O)(C(=O)O)C1CC(NCCCc2ccccc2)C1 (stereo partly drawn) in this work.

An IC50 (Arginase-1 [5]) of under 1 nM was found for CC(C)(C)[C@H](N)C(=O)N[C@H]1CN[C@H](C(=O)O)[C@@H]1CCCB(O)O in this work.

An IC50 [6] of 15000 nM was found for N[C@@H](CC/C=C/B(O)O)C(=O)O in this work.
